Experimental data published in patent publication US7271161B2, “Platinum complexes as antitumor agents in combination with biochemical modulation” (Board of Regents, the University of Texas System, priority 2002, dated 2007).
Where two headings read alike, the source gives them in different places.

Key:
Human A2780 cell line = assay: MTT cytotoxicity assay, cisplatin-sensitive ovarian A2780 cells, with or without BSO; type: cell-based; set-up: key to DMF vs. A2780 Control (Without BSO): DMF = IC50 without BSO / IC50 with BSO; settings: for DMF vs. A2780 +10 μM BSO (MTC): IC50 without BSO / IC50 with 10 μM BSO (MTC); for DMF vs. A2780 Control (Without BSO): without BSO (reference)
Text: (§1) The ovarian A2780 and 2008 cell lines are sensitive to cisplatin, while the corresponding 2780CP and 2008/C13* cell lines were selected for resistance following in vitro exposure to cisplatin. The SKOV-3 cell line was established from a patient who was resistant to cisplatin therapy and is considered a model of cisplatin resistance. The A2780 and 2780CP cells have wild-type p53 function, while SKOV-3 is devoid of p53 function. The p53 status for the 2008 and 2008/C131 cells is presently not known.
(§2) Procedure for Cytotoxic Evaluation. All cell lines are maintained in RPMI 1640 medium supplemented with 10% fetal bovine serum, 50 μg/ml penicillin, 50 μg/ml streptomycin, 100 μg/ml neomycin and 0.3 mg/ml L-glutamine. The ovarian lines also require 2 μg/ml insulin for maximal growth. Cells are grown as monolayers at 37° C. in a humidified atmosphere of 5% CO2:95% air. Cytotoxicity is determined by a standard MTT assay. Briefly, the exponentially-growing cells are trypsinized to dislodge them before use. After diluting the tumor cells to appropriate concentrations (2,000-30,000 cells/ml), 100 μl aliquots of the cell suspensions are added to each well of a 96-well microtiter plate. The cells are allowed to attach overnight, and then exposed for 24 hr to BSO at a concentration that is equal to or less than maximally tolerated concentration (MTC). At 22 hr after addition of BSO, the platinum complex is added, and 2 hr later the cells are washed and reincubated. After another 5 days, when control cells are in an exponential phase of growth, 50 μl of an MTT solution (3 mg/ml) is added to each well. Following a 3-hr incubation, the medium is removed and replaced by 50 μl of 100% DMSO to dissolve MTT formazan crystals. Plates are agitated on a plate shaker for 5 min, and absorbances are measured at 570 nm in a multiwell scanning spectrophotometer.
(§3) IC50 values, defined as the drug concentration (μM) inhibiting cell growth by 50% compared to control wells, are determined by fitting a sigmoidal curve to the data using a computer program. Resistance factor is calculated as a ratio of the IC50 against resistant cell line to the IC50 against parent cell line. The dose modification factor (DMF) is derived from a ratio of IC50 without BSO to that with BSO.

Human 2780CP cell line = assay: MTT cytotoxicity assay, cisplatin-resistant ovarian 2780CP cells, with or without BSO; type: cell-based; set-up: key to DMF vs. 2780CP Control (Without BSO) / DMF Control / DMF +BSO (MTC): DMF = IC50 without BSO / IC50 with BSO; settings: for DMF vs. 2780CP +10 μM BSO: IC50 without BSO / IC50 with 10 μM BSO; for DMF vs. 2780CP +3 mM BSO (MTC): IC50 without BSO / IC50 with 3 mM BSO (MTC); for DMF vs. 2780CP Control (Without BSO): without BSO (reference)
Text: as §1, §2, §3

SKOV-3 cell line = assay: MTT cytotoxicity assay, cisplatin-resistant SKOV-3 cells, with or without BSO; type: cell-based, Human; settings: SKOV-3; for IC50: Table 4; for DMF +BSO (MTC) / DMF Control: Table 5; for DMF Control: absence of BSO (reference)
Text: as §1, §2, §3

[1] = +10 μM BSO (MTC), 24 hr BSO, read-out: IC50 (μM) vs. A2780 +10 μM BSO (MTC)
[2] = without BSO, 2 hr platinum exposure, MTT after 5 days, read-out: IC50 (μM) vs. A2780 Control (Without BSO)
[3] = +10 μM BSO, read-out: IC50 (μM) vs. 2780CP +10 μM BSO
[4] = +3 mM BSO (MTC), read-out: IC50 (μM) vs. 2780CP +3 mM BSO (MTC)
[5] = without BSO, read-out: IC50 (μM) vs. 2780CP Control (Without BSO)
[6] = IC50 2780CP with 10 μM BSO / IC50 A2780 without BSO
[7] = IC50 2780CP with 3 mM BSO (MTC) / IC50 A2780 without BSO
[8] = IC50 2780CP without BSO / IC50 A2780 without BSO
[9] = BSO at sub-MTC, read-out: IC50 +BSO (MTC)
[10] = absence of BSO, read-out: IC50 Control

SMILES	IC50 (Human A2780 cell line; [1])	DMF vs. A2780 +10 μM BSO (MTC) (Human A2780 cell line)	DMF vs. A2780 Control (Without BSO) (Human A2780 cell line)	IC50 (Human A2780 cell line; [2])	IC50 (Human 2780CP cell line; [3])	IC50 (Human 2780CP cell line; [4])	DMF vs. 2780CP +10 μM BSO (Human 2780CP cell line)	DMF vs. 2780CP +3 mM BSO (MTC) (Human 2780CP cell line)	DMF vs. 2780CP Control (Without BSO) (Human 2780CP cell line)	IC50 (Human 2780CP cell line; [5])	Resistance Factor vs. 2780CP +10 μM BSO (Human 2780CP cell line; [6])	Resistance Factor vs. 2780CP +3 mM BSO (MTC) (Human 2780CP cell line; [7])	Resistance Factor vs. 2780CP Control (Without BSO) (Human 2780CP cell line; [8])	Resistance Factor vs. 2780CP +10 μM BSO (Human 2780CP cell line)	Resistance Factor vs. 2780CP +3 mM BSO (MTC) (Human 2780CP cell line)	Resistance Factor vs. 2780CP Control (Without BSO) (Human 2780CP cell line)	IC50 (SKOV-3 cell line; [9])	IC50 (SKOV-3 cell line; [10])	DMF +BSO (MTC) (SKOV-3 cell line; BSO at sub-MTC)	DMF Control (SKOV-3 cell line)
[Cl][Pt]1([Cl])([Cl])([Cl])[NH][C@@H]2CCCC[C@H]2[NH]1 (racemic) [Complex 13]	4.57 µM	1.86	1.00	8.48 µM	34.9 µM	23.5 µM	1.28	1.91	1.00	44.8 µM	–	–	–	–	–	–	–	–	–	–
[NH2][Pt]([NH2])([Cl])[Cl] [Complex 1]	4.25 µM	1.59	1.00	6.75 µM	82 µM	58.3 µM	1.23	1.73	1.00	101 µM	–	–	–	–	–	–	–	–	–	–
[Cl][Pt]1([Cl])[NH][C@@H]2CCCC[C@H]2[NH]1 [Complex 2]	0.41 µM	1.37	1.00	0.56 µM	3.69 µM	2.46 µM	1.25	1.87	1.00	4.61 µM	6.59	4.39	8.23	–	–	–	–	–	–	–
[NH2][Pt]([Cl])([Cl])[NH]C1CC1 [Complex 3]	3.46 µM	1.05	1.00	3.64 µM	62.2 µM	48.8 µM	1.02	1.31	1.00	63.7 µM	17.1	13.4	17.5	–	–	–	–	–	–	–
[NH2][Pt]([Cl])([Cl])[NH]C1CCC1 [Complex 4]	0.77 µM	1.34	1.00	1.03 µM	16 µM	15.8 µM	1.04	1.05	1.00	16.6 µM	15.5	15.3	16.1	–	–	–	–	–	–	–
[NH2][Pt]([Cl])([Cl])[NH]C1CCCC1 [Complex 5, Ammine/cyclopentylamine-dichloro-platinum(II)]	0.66 µM	1.11	1.00	0.73 µM	14.5 µM	9.07 µM	1.05	1.68	1.00	15.2 µM	19.9	12.4	20.8	–	–	–	–	–	–	–
[NH2][Pt]([Cl])([Cl])[NH]C1CCCCC1 [Complex 6]	0.5 µM	1.26	1.00	0.63 µM	6.98 µM	4.19 µM	1.08	1.80	1.00	7.55 µM	11.1	6.65	12.0	–	–	–	–	–	–	–
[NH2][Pt]([Cl])([Cl])[NH]C1CCCCCCC1 [Complex 8]	0.61 µM	1.26	1.00	0.77 µM	5.97 µM	2.35 µM	1.24	3.15	1.00	7.41 µM	7.75	3.05	9.62	–	–	–	–	–	–	–
[NH2][Pt]([Cl])([Cl])[N]1CCC1 [Complex 9]	3.02 µM	1.41	1.00	4.27 µM	18.7 µM	8.2 µM	1.45	3.32	1.00	27.2 µM	4.38	1.92	6.37	–	–	–	–	–	–	–
[NH2][Pt]([Cl])([Cl])[N]1CCCC1 [Complex 10]	2.9 µM	1.41	1.00	4.08 µM	28.2 µM	17.2 µM	1.32	2.16	1.00	37.2 µM	6.91	4.22	9.12	–	–	–	–	–	–	–
N[C@@H]1CCCC[C@H]1N.[Cl][Pt+2]([Cl])([Cl])[Cl] [Complex 13, Tetraplatin, reference compound]	–	–	–	–	–	–	–	–	–	–	–	–	–	4.12	2.77	5.28	–	–	–	–
N[C@@H]1CCCC[C@H]1N.[OH][Pt+2]([OH])([Cl])[Cl] [Complex 14]	1.17 µM	1.07	1.00	1.25 µM	15.5 µM	9.54 µM	1.02	1.66	1.00	15.8 µM	12.4	7.63	12.6	–	–	–	–	–	–	–
[NH2][Pt]([Cl])([Cl])([Cl])([Cl])[NH]C1CCCCC1 [Complex 15]	0.72 µM	1.26	1.00	0.91 µM	10.8 µM	4.34 µM	1.43	3.55	1.00	15.4 µM	11.9	4.77	16.9	–	–	–	–	–	–	–
[NH2][Pt]([OH])([OH])([Cl])([Cl])[NH]C1CCCCC1 [Complex 16]	3.07 µM	1.16	1.00	3.55 µM	19.6 µM	8.92 µM	1.22	2.68	1.00	23.9 µM	5.52	2.51	6.73	–	–	–	–	–	–	–
[NH2][Pt]([OH])([OH])([Cl])([Cl])[N]1CCCCCC1 [Complex 18]	–	–	–	–	–	–	–	–	–	–	–	–	–	–	–	–	14.2 µM	140 µM	9.86	1.00
CC(=O)[O][Pt]([NH2])([Cl])([Cl])([O]C(C)=O)[N]1CCCCCC1 [Complex 19]	–	–	–	–	–	–	–	–	–	–	–	–	–	–	–	–	21.6 µM	100 µM	4.63	1.00
